# “And” between values parts separate entries of the source, which are not always exact repeats. Identical values can stand only once.
# Legend:
# [1] = test system: iAMs; assay: WST-1 cell viability assay in H2O2-treated iAMs; assay type: cell-based, rat; design: In vitro cell viability assay with WST-1: unit not given here
# Experimental: Following the transfer of 150 µL of culture medium for the ToxiLight assay, 7 µL of WST-1 reagent (Merck, 5015944001) was added directly to the remaining cell culture medium in each well. The cells were incubated at 37 °C for an additional 4 h. After incubation, the absorbance of the samples was measured at 450 nm (690 nm was used as reference wavelength and subtracted) using a microplate reader (Epoch). […]
# [2] = test system: mouse model of MI; assay: Mouse model of MI (LAD ligation), echocardiography; assay type: in vivo; design: left-ventricular end-diastolic volume / left-ventricular end-systolic volume: unit not given here
# Experimental: Twelve-week-old female and male Balb/cJ (Charles River, 000651) mice were randomized into either the ctrl or MI group. Mice in the MI group underwent surgical ligation of the LAD, while mice in the ctrl group underwent a sham procedure (n = 8 female mice, n = 10 male mice). Briefly, all mice received an injection of 0.1 mg/kg buprenorphine (Produlab Pharma) before induction of anesthesia with 8% sevoflurane (Zoetis). Anesthesia was maintained with 4.5% sevoflurane and mice were intubated and ventilated. An incision of 15 mm was made on the left side of the thorax and the thoracic cavity was opened at the third intercostal space using blunt forceps. The LAD was permanently ligated with a 8/0 polypropylene monofilament sutures (Ethicon, F1894) after which the thoracic cavity and skin were closed with 6/0 polypropylene monofilament sutures (Ethicon, F1841). and 5/0 polyamide 6 sutures (Ethilon, F2412H), respectively. Mice received another dose of 0.1 mg/kg buprenorphine 6–8 h after the initial dose. Two days after surgery, cardiac ultrasound was performed to exclude mice without successful MI (i.e. displaying hypokinesia in ≥2 out of 5 segments). […] Cardiac ultrasound was performed weekly. After 4 weeks of treatment, mice were euthanized, and hearts were collected.
# Echocardiography was performed using the Vevo F2-LAZRX (FUJIFILM VisualSonics) and UHF57x probe. Mice were anesthetized with 1.5% isoflurane (Alvira, BE-V512222). Parasternal long-axis B-mode images and M-mode images were obtained and analyzed using VevoLAB software (FUJIFILM VisualSonics, Version 5.7.1). For the AngII experiments, measurements were obtained through analysis of the short-axis M-mode. For the MI experiments, measurements were obtained through analysis of the parasternal long-axis B-mode, of which the area and end-volume of the left ventricular cavity in diastole and systole were determined by tracing the endocardial border. Acquisitions, measurements and analyses were performed blinded.
# Supplementary Table 2. Echocardiographic parameters. […]
# Echocardiographic parameters obtained through left ventricular trace analysis of the parasternal long-axis obtained in B-mode in female wild-type mice that underwent a sham or MI operation: mice with […]
# in MI/EF-1 group). (g) Echocardiographic parameters obtained through left ventricular trace analysis of the parasternal long-axis obtained in B-mode in male wild-type mice that underwent a sham or MI […]
# male mice in MI/Veh group for T2 and T4). Echocardiographic parameters were measured weekly (indicated by ‘T’). All data are presented as mean (value of individual mice) ± SD, two-tailed unpaired […]
# 1 groups. Source data are provided as a Source Data file. AngII, angiotensin II; ANOVA, analysis of variance; Ctrl, control; DOX, doxorubicin; EF, ejection fraction; ERBB4, erythroblastic leukemia viral oncogene homolog 4; FS, fractional shortening; IVSd, interventricular septum thickness in diastole; IVSs, interventricular septum thickness in systole; LVIDd, left ventricular internal diameter in diastole; LVIDs, left ventricular internal diameter in systole; LVPWd, left ventricular posterior wall thickness in diastole; LVPWs, left ventricular posterior wall thickness in systole; MI, myocardial infarction; NA, non-activating pharmacophore-containing compound; SD, standard variation; Veh, vehicle.
# [3] = test system: Akt phosphorylation (pAkt/Akt); design: method as in PMID 14654373; settings: cited from earlier work
# [4] = Myocardial infarction, female wild-type mice, MI/EF-1, T0
# [5] = Myocardial infarction, female wild-type mice, MI/EF-1, T2
# [6] = Myocardial infarction, female wild-type mice, MI/EF-1, T3
# [7] = Myocardial infarction, female wild-type mice, MI/EF-1, T4
# [8] = Myocardial infarction, male wild-type mice, MI/EF-1, T0
# [9] = Myocardial infarction, male wild-type mice, MI/EF-1, T2
# [10] = Myocardial infarction, male wild-type mice, MI/EF-1, T3
# [11] = Myocardial infarction, male wild-type mice, MI/EF-1, T4
# [12] = female wild-type mice, MI/EF-1, T0, mean ± SD
# [13] = female wild-type mice, MI/EF-1, T2, mean ± SD
# [14] = female wild-type mice, MI/EF-1, T3, mean ± SD
# [15] = female wild-type mice, MI/EF-1, T4, mean ± SD
# [16] = male mice, MI/EF-1, 0 weeks after MI
# [17] = male wild-type mice, MI/EF-1, T0, mean ± SD
# [18] = male wild-type mice, MI/EF-1, T2, mean ± SD
# [19] = male wild-type mice, MI/EF-1, T3, mean ± SD
# [20] = male wild-type mice, MI/EF-1, T4, mean ± SD
molecule,measurement,setting,value
O=C(NC1CC1)C(Sc1nc2ccccc2c(=O)n1C1CCCC1)c1ccccc1 (stereo not shown) [EF-1],"cell viability, WST-1 absorbance (in words)","[1]; 100 µM H2O2, pre-treatment with EF-1",significantly increased cell viability
same,In vitro cell viability assay with WST-1,"[1]; H2O2/EF-1, individual replicates",1.268 and 0.9224 and 0.7959 and 0.7633 and 0.6939 and 1.2898 and 0.9164 and 0.8058 and 0.7767 and 0.7185 and 1.306 and 0.9585 and 0.8456 and 0.8168 and 0.7703 and 1.242 and 0.9643 and 0.8304 and 0.8393 and 0.7321
same,LVEDA,[2]; [4],21.8 ± 1.4 mm²
same,LVEDV,[2]; [4],56.7 ± 5.5 µL
same,LVESA,[2]; [4],15.5 ± 2.1 mm²
same,LVESV,[2]; [4],32.7 ± 6.7 µL
same,LVEDA,[2]; [5],25.7 ± 1.6 mm²
same,LVEDV,[2]; [5],73.6 ± 9.1 µL
same,LVESA,[2]; [5],20.8 ± 2.9 mm²
same,LVESV,[2]; [5],53.9 ± 14.5 µL
same,LVEDA,[2]; [6],26.5 ± 4.5 mm²
same,LVEDV,[2]; [6],80.3 ± 22.9 µL
same,LVESA,[2]; [6],21.2 ± 5.8 mm²
same,LVESV,[2]; [6],56.6 ± 25.0 µL
same,LVEDA,[2]; [7],26.5 ± 4.5 mm²
same,LVEDV,[2]; [7],80.3 ± 22.9 µL
same,LVESA,[2]; [7],21.2 ± 5.8 mm²
same,LVESV,[2]; [7],56.6 ± 25.0 µL
same,LVEDA,[2]; [8],24.7 ± 3.9 mm²
same,LVEDV,[2]; [8],67.1 ± 15.6 µL
same,LVESA,[2]; [8],17.6 ± 2.8 mm²
same,LVESV,[2]; [8],37.3 ± 8.9 µL
same,LVEDA,[2]; [9],34.8 ± 5.5 mm²
same,LVEDV,[2]; [9],118.7 ± 30.8 µL
same,LVESA,[2]; [9],29.7 ± 6.7 mm²
same,LVESV,[2]; [9],93.3 ± 36.1 µL
same,LVEDA,[2]; [10],36.6 ± 5.9 mm²
same,LVEDV,[2]; [10],124.6 ± 35.3 µL
same,LVESA,[2]; [10],31.3 ± 8.0 mm²
same,LVESV,[2]; [10],100.4 ± 42.0 µL
same,LVEDA,[2]; [11],35.9 ± 6.9 mm²
same,LVEDV,[2]; [11],119.8 ± 37.5 µL
same,LVESA,[2]; [11],30.5 ± 7.7 mm²
same,LVESV,[2]; [11],92.5 ± 40.6 µL
same,effect on MI-induced increase in LVEDV and LVESV (in words),"[2]; female mice, four-week treatment, EF-1 2 mg/kg/day",significantly attenuated the increase in LVEDV and LVESV
same,effect on left ventricular ejection fraction (in words),"[2]; female mice, four-week treatment, p = 0.0858",trend towards an increased EF
same,EF (ejection fraction),[2]; [12],42.7 ± 8.1%
same,LVEDA,[2]; [12],21.8 ± 1.4 mm²
same,LVEDV,[2]; [12],56.7 ± 5.5 µL
same,LVESA,[2]; [12],15.5 ± 2.1 mm²
same,LVESV,[2]; [12],32.7 ± 6.7 µL
same,EF (ejection fraction),[2]; [13],27.4 ± 14.1%
same,LVEDA,[2]; [13],25.7 ± 1.6 mm²
same,LVEDV,[2]; [13],73.6 ± 9.1 µL
same,LVESA,[2]; [13],20.8 ± 2.9 mm²
same,LVESV,[2]; [13],53.9 ± 14.5 µL
same,EF (ejection fraction),[2]; [14],32.2 ± 12.4%
same,LVEDA,[2]; [14],26.5 ± 4.5 mm²
same,LVEDV,[2]; [14],80.3 ± 22.9 µL
same,LVESA,[2]; [14],21.2 ± 5.8 mm²
same,LVESV,[2]; [14],56.6 ± 25.0 µL
same,EF (ejection fraction),[2]; [15],32.2 ± 12.4%
same,LVEDA,[2]; [15],26.5 ± 4.5 mm²
same,LVEDV,[2]; [15],80.3 ± 22.9 µL
same,LVESA,[2]; [15],21.2 ± 5.8 mm²
same,LVESV,[2]; [15],56.6 ± 25.0 µL
same,"effect on LVEDV, LVESV, or EF (in words)",[2]; male mice,"did not have affect LVEDV, LVESV, or EF"
same,ejection fraction,[2]; [16],45.4182 and 46.7993 and 31.6272 and 37.5306 and 56.6563
same,left-ventricular end-diastolic volume,[2]; [16],76.7178 and 76.3835 and 40.6948 and 76.4847 and 65.2387
same,left-ventricular end-systolic volume,[2]; [16],41.874 and 40.6361 and 27.8242 and 47.7795 and 28.2468
same,left-ventricular end-diastolic volume,"[2]; male mice, MI/EF-1, 3 weeks after MI",90.4868 and 146.112 and 167.204 and 86.1633 and 133.043
same,EF (ejection fraction),[2]; [17],43.6 ± 9.5%
same,LVEDA,[2]; [17],24.7 ± 3.9 mm²
same,LVEDV,[2]; [17],67.1 ± 15.6 µL
same,LVESA,[2]; [17],17.6 ± 2.8 mm²
same,LVESV,[2]; [17],37.3 ± 8.9 µL
same,EF (ejection fraction),[2]; [18],23.2 ± 12.8%
same,LVEDA,[2]; [18],34.8 ± 5.5 mm²
same,LVEDV,[2]; [18],118.7 ± 30.8 µL
same,LVESA,[2]; [18],29.7 ± 6.7 mm²
same,LVESV,[2]; [18],93.3 ± 36.1 µL
same,EF (ejection fraction),[2]; [19],22.0 ± 15.7%
same,LVEDA,[2]; [19],36.6 ± 5.9 mm²
same,LVEDV,[2]; [19],124.6 ± 35.3 µL
same,LVESA,[2]; [19],31.3 ± 8.0 mm²
same,LVESV,[2]; [19],100.4 ± 42.0 µL
same,EF (ejection fraction),[2]; [20],25.2 ± 11.5%
same,LVEDA,[2]; [20],35.9 ± 6.9 mm²
same,LVEDV,[2]; [20],119.8 ± 37.5 µL
same,LVESA,[2]; [20],30.5 ± 7.7 mm²
same,LVESV,[2]; [20],92.5 ± 40.6 µL
neuregulin-1 [NRG1],time of peak NRG1-induced Akt phosphorylation,[3],15 min

# — article PMC11724075, “Small-molecule-induced ERBB4 activation to treat heart failure” (Nature Communications, 2025)
